From patent publication US20240415858A1, “PROMOTING MYELINATION BY N-ACETYLGLUCOSAMINE AND MODULATION OF N-GLYCAN BRANCHING” (THE REGENTS OF THE UNIVERSITY OF CALIFORNIA, priority 2021, published 2024)
“Also recorded” adds a separate entry of the source.

Tests used:
[1] = system: C57BL/6 mice with cuprizone induced demyelination; experiment: Cuprizone induced demyelination / re-myelination model (rotarod, immunofluorescence, electron microscopy); type: in vivo, mouse
Experimental: Cuprizone at 0.2% induces demyelination in the corpus callosum by 3 weeks, with maximum demyelination at 5-6 weeks. 8-week-old C57BL/6 mice purchased from Jackson Laboratories or 8-week old Mgat5^+/− C57BL/6 mice were treated with 0.2% Cuprizone (Sigma) mixed into milled rodent chow for 6 weeks for the active phase treatment and 5 weeks for the recovery treatment. During active phase treatment, GIcNAc (1 mg/mL) in drinking water or just drinking water (control) was provided for the last 3 weeks of Cuprizone treatment. For the recovery phase treatment, GIcNAc in drinking water or control was provided after Cuprizone treatment had been stopped. Mice were anesthetized and underwent cardiac perfusion with 4% paraformaldehyde in PBS or 4% paraformaldehyde plus 0.5% glutaraldehyde in Sodium cacodylate buffer for immunofluorescence or electron microscopic analysis respectively. Brains were then fixed overnight in perfusion solution
One day prior to Cuprizone treatment, mice were trained on the rotarod by allowing them to run three 5-minute trials at a constant 30 rotations per minute (RPM). Mice then underwent weekly testing during Cuprizone and GIcNAc treatment on an accelerating rotarod starting at 4 rpm increasing to 40 rpm over 5 minutes. Latency for mice to fall was recorded. If a mouse was not running on the rotarod by holding on for 3 turns, this was considered a fall. For the active phase treatment, one trial was run every week. For the recovery phase treatment, 3 trials were run for each mouse each week and latencies were averaged. As expected with Cuprizone treatment performance degraded as treatment progressed.
For neural stem cell (NSC) immunofluorescence, whole neurospheres were seeded onto laminin-coated coverslips (Neuvitro) in proliferation medium. After 24 hours, proliferation media was removed and replaced with differentiation medium (same components as proliferation medium but excluding EGF, bFGF, and heparin) to induce differentiation. For analysis of mouse brains, brains were incubated in 30% sucrose for at least 72 hours, embedded in OCT (Tissue-tek), frozen for at least 48 hours at −80° C., and then cut at 40 microns on a cryostat. Multiple sections from −1 bregma to −2.5 bregma were then stained with antibodies for MBP (1:100; MAB386, Millipore), Olig2 (1:200; AB9610, Millipore), CC1 (1:100; OP90, Millipore), degraded MBP (1:200, AB5864, Millipore) and Amyloid Precursor Protein (APP, 1:200; clone 22C11). After overnight incubation with primary antibody, tissues were washed and incubated with secondary antibodies: goat anti-rat Alexa-fluor 488 (1:200, Thermofisher), goat anti-rabbit TxRd (1:200, Thermofisher). APP is a marker for neuro-axonal damage while co-staining for CC1 and Olig2 are markers of mature oligodendrocytes. In order to examine the amount of myelin, slices were incubated in Fluoromyelin (1:300; F34651, Thermofisher) for 45 minutes. Images were acquired on a Keyence fluorescence microscope. Mean fluorescence intensity of the medial corpus callosum was measured using ImageJ.
Three mice from each treatment group (control and GIcNAc) were selected randomly for EM analysis (before other investigations were performed). Portions of these brains from 0 to −1 bregma were rinsed in 0.1 M cacodylate buffer overnight and again for 15 min. the next day. 2×1 mm blocks of the corpus callosum were dissected out and post-fixed with 1% osmium tetroxide in 0.1 M cacodylate buffer for 1 hour, rinsed in ddH20, dehydrated in increasing serial dilutions of ethanol (70%, 85%, 95%, 100%×2) for 10 min each, put in propylene oxide (intermediate solvent) for 2×10 min, incubated in propylene oxide/Spurr's resin (1:1 mix) for 1 h, and then in Spurr's resin overnight. The blocks were put in a fresh change of resin in flat embedding molds the next day and polymerized overnight at 60° C. The blocks were sectioned at 1 μm using a Leica Ultracut UCT ultramicrotome. […]

[2] = Phase 1 trial: serum HexNAc levels by LC-MS/MS; type: in vivo, human; settings: 6 g and 12 g cohorts, after stopping oral GIcNAc
[3] = system: blasting/activated CD25+CD4+ T cells; experiment: Phase 1 trial: N-glycan branching in T cells by L-PHA flow cytometry; type: in vivo, human; settings: for average increase of L-PHA binding in blasting/activated CD25+CD4+ T cells: oral
Experimental: Based on its immunomodulatory effects, a FDA approved (IND 122235) dose escalation was carried out, open-label NIH funded Phase 1 mechanistic clinical trial of oral GIcNAc in MS patients (RRMS and PMS) on glatiramer acetate and not in acute relapse, with the primary endpoint an increase in N-glycan branching in T cells. This endpoint was used as a surrogate marker for GIcNAc's biological activity. Three doses were evaluated: 1 g TID (3 g total, n=13), 2 g TID (6 g total, n=18) and 4 g TID (12 g total, n=16). Subjects had baseline blood drawn weekly four times, then started on oral GIcNAc with 4 weekly blood draws (FIG. 8A).
To assess the primary endpoint (increased N-glycan branching in T cells), flow cytometry was used to assess binding of the plant lectin L-PHA (Phaseolus vulgaris leukoagglutinin) to T cells. L-PHA is a highly sensitive and specific measure of N-glycan branching. L-PHA binding was increased in blasting/activated CD25^+CD4^+ T cells in the 12 g (p=0.0065) and 6 g (p=0.037) but not the 3 g cohort, with average increases of 7%, 3% and 1.7% respectively (FIGS. 8H and 8I); the latter indicative of a dose response.

[4] = system: MS patients; experiment: Phase 1 trial: serum neurofilament light chain (Nfl), single molecule array immunoassay; type: in vivo, human; settings: subjects with elevated baseline Nfl from all three dose groups, week 3 and 4 of treatment, p=0.0045, n=18
Experimental: Comparison of the change in serum Nfl concentration in subjects with elevated baseline levels (combined from the 3 g, 6 g, and 12 g cohorts) showing change from pre-GIcNAc to during weeks 3-4 of GIcNAc treatment. The four data points pre-GIcNAc (black dots) and the two data points from week 3 and 4 during GIcNAc treatment are averaged, normalized to pre-GIcNAc levels and shown as black and red dots connected by black lines for each subject, respectively. Nfl was measured by an ultra sensitive single molecule array immunoassay. P-value by 1-tailed Wilcoxon matched-pairs signed rank test.
Neurons exclusively express Nfl and release it when damaged, with high serum Nfl levels (>˜40 pg/ml) serving as a robust biomarker for ongoing neuro-axonal damage in MS. This analysis was done blinded by Jens Kuhle (University of Basel), who has published extensively on Nfl in MS.

[5] = mouse, in vivo, po
[6] = GIcNAc only after cuprizone stopped, wildtype 2 weeks, Mgat5+/- 1 or 4 weeks
[7] = Mgat5+/- mice, 4 weeks GIcNAc after 5 weeks cuprizone
[8] = wildtype mice, GIcNAc during final 3 weeks of 6-week cuprizone exposure

## CC(=O)N[C@H]1C(O)O[C@H](CO)[C@@H](O)[C@@H]1O (stereo partly shown) [GIcNAc, N-acetylglucosamine]
[1]; [6]
  degraded MBP (dMBP)/myelin degeneration in the corpus callosum: reducing
  levels of MBP in the corpus callosum: enhanced
  levels of myelin (fluoromyelin) in the corpus callosum: enhanced
  mature oligodendrocytes (CC1 Olig2+) in the corpus callosum: enhanced
[1]; [7]
  axon loss (electron microscopy): reducing
  degree of myelination (g-ratio, electron microscopy): enhanced
  number of degenerating and dystrophic/swollen axons (electron microscopy): reducing
  number of myelinated axons (electron microscopy): enhanced
  number of paranodes (electron microscopy): enhanced
[1]; Mgat5+/- mice, recovery phase
  increase in fluoromyelin staining, 4 versus 1 week of GIcNAc treatment: ~2 fold
[1]; wildtype mice, GIcNAc during final 3 weeks of 6-week cuprizone (0.2%) exposure
  motor function (rotarod fall latency): prevented loss of motor function
[1]; [8]
  MBP levels in the corpus callosum: increasing
  axonal damage (accumulation of amyloid precursor protein, APP) in the corpus callosum: reducing
[2]
  serum HexNAc levels during the washout period: rapidly declined back to baseline
[3]; oral GIcNAc, data not shown
  L-PHA binding in activated CD25+CD8+ T cells, resting CD25-CD4+ and CD25-CD8+ T cells and activated/resting CD19+ B cells: no increase
[3]; 3 g cohort (not significant)
  average increase of L-PHA binding in blasting/activated CD25+CD4+ T cells: 1.7%
[3]; 6 g cohort (p=0.037)
  average increase of L-PHA binding in blasting/activated CD25+CD4+ T cells: 3%
[3]; 12 g cohort (p=0.0065)
  average increase of L-PHA binding in blasting/activated CD25+CD4+ T cells: 7%
[3]; post-GIcNAc, 6 g and 12 g cohorts
  L-PHA binding to blasting/activated CD25+CD4+ T cells during the washout period vs pre-GIcNAc or during GIcNAc: no significant difference
[4]
  serum Nfl levels: significantly reduced; also recorded: reduces
[5]
  crossing of the blood brain barrier: able to cross the blood brain barrier
  secretion in breast milk: secreted at sufficient levels in breast milk to raise UDP-GIcNAc in the brains of suckling pups
